Experimental findings from US8263623B2, “Triazol derivatives useful for the treatment of diseases” (Pfizer Inc., priority 2008, dated 2012) are described below.

Experiment [1] has as its target human adrenergic β2 receptor (Homo sapiens, UniProt P07550). Put plainly: hβ2 cAMP assay: whole cell cAMP assay in CHO cells expressing the hβ2 receptor. The format is cell-based. Conditions: CHO cells recombinantly expressing human β2 receptor; for Emax: agonist efficacy, 100 nM Formoterol control; for EC50: agonist potency. The text has this: (§1) [formula] where IC50 is the concentration of unlabelled drug which inhibits by 50% the specific radioligand binding. [L] is the free radioligand concentrations and KD and Ki are the equilibrium dissociation constants of the radioligand and unlabelled drug respectively. Functional Assessment of Agonist Potency and Efficacy Using a Whole cell cAMP Assay in CHO Cells Expressing the hβ2 Receptor Cell Culture
CHO (Chinese Hamster Ovary) cells recombinantly expressing the human adrenergic β2 receptor were maintained in growth media composed of F12:DMEM (Gibco 21331-020) containing 10% Foetal Bovine Serum (FBS: Sigma F4135), 10 μg/ml puromycin (Sigma P8833), 0.1 mg/ml Geneticin G418 (Sigma G7034) and 2 mM L-glutamine (Sigma G7513). The cells were kept in sterile conditions at 37° C., in an atmosphere containing 5% CO2.
Cells were harvested for assay when they reached 80-90% confluency using trypsin 0.25% (Sigma T4049) incubated with the cells for 5 min at 37° C. in an atmosphere containing 5% CO2. Detached cells were collected in warmed growth media (composition described above), and re-suspended in assay media (F12:DMEM (Gibco 21331-020) containing 1% Foetal Bovine Serum (FBS: Sigma F4135) and 2 mM L-glutamine (Sigma G7513)) to give a viable cell concentration of 0.25×10^6 cells/ml. 100 μl of this suspension was added to each well of a tissue culture treated 96 well view-plate (PerkinElmer 6005181) and the plate incubated in an atmosphere containing 5% CO2 at 37° C. overnight. The following day, cells were washed (4×200 μl, Skatron Skanstacker 300) with Phosphate Buffered Saline (PBS). The plates were then pat dried and the media replaced with 50 μl PBS plus 0.5 mM isobutylmethylxanthine (IBMX) (Sigma I5879) before returning to the incubator for 30 mins. The PBS plate wash procedure was repeated, followed by the addition of 50 μl PBS plus 0.5 mM IBMX and 50 μl PBS plus 2% DMSO and the plates returned to the incubator for 30 mins. Concentration ranges of test compounds were prepared in PBS containing 2% DMSO. The PBS plate wash procedure was repeated, and then 50 μl PBS plus 0.5 mM IBMX was added to the assay plates, followed by the addition of 50 μl of each compound test concentration to the appropriate well. 50 μl per well of 2% DMSO or 200 nM Formoterol was added to the control wells, giving a final assay concentration of 1% DMSO or 100 nM Formoterol. Plates were returned to the incubator for a further 30 mins. At the end of the incubation period the PBS plate wash procedure was repeated a final time as described above. The plates were pat dried and 30 μl per well PBS added followed by 40 μl per well cAMP II ED/Substrate mix and 40 μl per well cAMP II EA-Ab/lysis mix (DiscoverX 90-0034-03). The plates were then incubated in the dark for a minimum of 4 hours at room temperature. The plates were read using a Fusion plate reader (luminescence protocol, each well read for 1 second). Concentration effect curves were plotted and EC50 & Emax values determined using a 4-parameter sigmoid fit generated using an in-house data analysis programme. Formoterol and salmeterol were run in every assay as reference standards.

In experiment [2] the target is human muscarinic M3 receptor (Homo sapiens, UniProt P20309). Briefly: hM3 competition binding assay (3H-NMS) on CHO cell membranes. Conditions: 24 hr at RT, IC50 corrected by Cheng-Prussoff equation. The procedure:
Binding Affinity Assessment at the Human Recombinant M3 Muscarinic Receptor
Cell Pellets from CHO (Chinese Hamster Ovary) cells recombinantly expressing the human muscarinic M3 receptor were homogenised in 20 mM HEPES (pH7.4) and centrifuged at 48000×g for 20 min at 4° C. The pellet was re-suspended in buffer and the homogenisation and centrifugation steps repeated. The resulting pellet was re-suspended in 1 ml buffer per 1 ml original packed cell volume and the homogenisation step repeated. Protein estimation was carried out on the suspension and 1 ml aliquots of ˜1 mg/ml frozen at −80° C.
hM3 Competition Binding Assay Protocol
Membranes (5 μg/well) were incubated with ^3H-NMS (at a concentration 5×KD) plus/minus test compound for 24 hr at RT (room temperature) in a 1 ml polystyrene 96-well deep well block. The final assay volume was 200 μl, comprising of: 20 μl plus/minus test compound; 20 μt, ^3H-NMS (Perkin Elmer NEN 636) and 160 μl membrane solution. Total Binding was defined with 0.1% DMSO; Non-Specific Binding was defined with 1 μM Atropine. Assay buffer was 20 mM Hepes (pH 7.4).
Once all assay components were added, plates were covered and incubated at room temperature for 24 hrs with shaking. The assay was terminated by rapidly filtering through GF/B Unifilter plates pre-soaked with 0.5% polyethylenimine, using a Packard filtermate harvester, the filter plate was then washed with 3×1 ml 4° C. assay buffer. The filter plates were dried at 45° C. for 1 hour. The bottoms of the filter plates were sealed and 50 μl/well of Microscint ‘0’ added, the top of the plates were sealed with a Topseal. Following 90 mins, the plates were read on an NXT Topcount (1 minute read time per well).
The resulting data was expressed as a percentage of the specific binding (Specific binding=Total binding−Non-Specific Binding). % specific binding versus test compound concentration was plotted to determine an IC50 from a sigmoid curve using an in-house data analysis programme. IC50 values corrected to Ki values by applying the Cheng-Prussoff equation:
as §1

Broadly, the Emax is the size of the effect at its maximum, as opposed to the concentration needed. As a reminder, the EC50 is the concentration needed to bring the measured effect to its halfway point. As usually defined, the Ki is the equilibrium dissociation constant of an inhibitor or competing ligand from its target. Read a low Ki as a stronger hold on the target.

Molecules are shown by their SMILES.

Sequence of human adrenergic β2 receptor (P07550 whole entry): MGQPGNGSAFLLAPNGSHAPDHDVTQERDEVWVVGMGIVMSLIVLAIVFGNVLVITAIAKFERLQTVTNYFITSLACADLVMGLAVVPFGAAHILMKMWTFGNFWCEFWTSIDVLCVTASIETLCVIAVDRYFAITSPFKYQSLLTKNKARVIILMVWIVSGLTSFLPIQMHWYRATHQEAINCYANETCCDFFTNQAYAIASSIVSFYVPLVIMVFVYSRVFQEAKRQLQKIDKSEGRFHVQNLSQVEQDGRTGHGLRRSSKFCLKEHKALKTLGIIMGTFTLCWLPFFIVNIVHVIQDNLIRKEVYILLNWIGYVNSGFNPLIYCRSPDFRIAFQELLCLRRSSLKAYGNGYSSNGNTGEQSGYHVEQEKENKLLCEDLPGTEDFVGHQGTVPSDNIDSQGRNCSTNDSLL
Sequence of human muscarinic M3 receptor (P20309 whole entry): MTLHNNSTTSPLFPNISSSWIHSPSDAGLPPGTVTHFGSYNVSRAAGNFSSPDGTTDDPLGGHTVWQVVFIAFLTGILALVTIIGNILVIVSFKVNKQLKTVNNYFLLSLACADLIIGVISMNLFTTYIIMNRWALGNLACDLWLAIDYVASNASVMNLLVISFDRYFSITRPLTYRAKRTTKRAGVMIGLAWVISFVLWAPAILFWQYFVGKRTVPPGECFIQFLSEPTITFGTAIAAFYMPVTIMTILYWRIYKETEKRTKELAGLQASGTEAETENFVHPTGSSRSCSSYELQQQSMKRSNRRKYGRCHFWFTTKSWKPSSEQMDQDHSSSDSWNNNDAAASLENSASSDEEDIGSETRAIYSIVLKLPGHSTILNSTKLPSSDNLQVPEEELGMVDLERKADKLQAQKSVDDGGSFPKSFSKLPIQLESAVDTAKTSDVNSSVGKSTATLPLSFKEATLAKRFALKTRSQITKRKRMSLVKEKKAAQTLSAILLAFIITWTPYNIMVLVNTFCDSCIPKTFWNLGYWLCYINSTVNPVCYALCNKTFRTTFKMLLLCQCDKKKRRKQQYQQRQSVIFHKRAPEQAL

Take `O=c1ccc2c([C@@H](O)CNCCCCCCCCCN3CCC(Cn4cnc([C@](O)(c5ccccc5)C5CCCCC5)n4)CC3)ccc(O)c2[nH]1` [Example 1, 5-[(1R)-2-({9-[4-({3-[(R)-cyclohexyl(hydroxy)phenylmethyl]-1H-1,2,4-triazol-1-yl}methyl)piperidin-1-yl]nonyl}amino)-1-hydroxyethyl]-8-hydroxyquinolin-2(1H)-one]: in experiment [1], the Emax was determined as 103% and the concentration for a half-maximal effect (EC50) turned out to be 14 nM. In addition, the affinity in experiment [2] corresponds to a Ki of 0.57 nM.
On the same counts, the results for `O=c1ccc2c([C@@H](O)CNCCc3ccc(CCN4CCC(Cn5cnc([C@](O)(c6ccccc6)C6CCCCC6)n5)CC4)cc3)ccc(O)c2[nH]1` [Example 2, 5-[(1R)-2-{[2-(4-{2-[4-({3-[(R)-cyclohexyl(hydroxy)phenylmethyl]-1H-1,2,4-triazol-1-yl}methyl)piperdin-1-yl]ethyl}phenyl)ethyl]amino}-1-hydroxyethyl]-8-hydroxyquinolin-2(1H)-one] are 106%, 21.6 nM and 0.153 nM.
On the same counts, the results for `O=c1ccc2c([C@@H](O)CNCCCCCCCCCN3CCC(Cn4cnc(C(O)(c5ccccc5)C5CCCCC5)n4)CC3)ccc(O)c2[nH]1` (stereo partly drawn) [Example 3, 5-[(1R)-2-({9-[4-({3-[cyclohexyl(hydroxy)phenylmethyl]-1H-1,2,4-triazol-1-yl}methyl)piperdin-1-yl]nonyl}amino)-1-hydroxyethyl]-8-hydroxyquinolin-2(1H)-one] are 91%, 20.6 nM and 0.924 nM.
The like results for `O=c1ccc2c([C@@H](O)CNCCCCCCCCCN3CCC(Cn4cnc(C(O)(c5ccccc5)c5ccccc5)n4)CC3)ccc(O)c2[nH]1` [Example 4, 8-hydroxy-5-[(1R)-1-hydroxy-2-({9-[4-({3-[hydroxy(diphenyl)methyl]-1H-1,2,4-triazol-1-yl}methyl)piperdin-1-yl]nonyl}amino)ethyl]quinolin-2(1H)-one] were, in that order, 90%, 13 nM and 0.505 nM.
As for `O=c1ccc2c([C@@H](O)CNCCc3ccc(CCN4CCC(Cn5cnc(C(O)(c6ccccc6)c6ccccc6)n5)CC4)cc3)ccc(O)c2[nH]1` [Example 5, 8-hydroxy-5-[(1R)-1-hydroxy-2-{[2-(4-{2-[4-({3-[hydroxy(diphenyl)methyl]-1H-1,2,4-triazol-1-yl}methyl)piperidin-1-yl]ethyl}phenyl)ethyl]amino}ethyl]quinolin-2(1H)-one], in experiment [1], the maximal response (Emax) turned out to be 95% and the concentration giving a half-maximal response (EC50) was found to be 116 nM. This compound also showed a Ki in experiment [2] of 2.49 nM.
